What was measured:
[1] = target: T1, human TMC4 (hTMC4) (Homo sapiens, UniProt Q7Z404); assay: whole cell patch clamp assay using HEK293T cells expressing hTMC4; format: cell-based; details: 100 μM added to vehicle solution (134 mM NaCl), same cells compared
T1 construct: host or cells: HEK293T
T1 sequence (Q7Z404 1-706 isoform Q7Z404-1): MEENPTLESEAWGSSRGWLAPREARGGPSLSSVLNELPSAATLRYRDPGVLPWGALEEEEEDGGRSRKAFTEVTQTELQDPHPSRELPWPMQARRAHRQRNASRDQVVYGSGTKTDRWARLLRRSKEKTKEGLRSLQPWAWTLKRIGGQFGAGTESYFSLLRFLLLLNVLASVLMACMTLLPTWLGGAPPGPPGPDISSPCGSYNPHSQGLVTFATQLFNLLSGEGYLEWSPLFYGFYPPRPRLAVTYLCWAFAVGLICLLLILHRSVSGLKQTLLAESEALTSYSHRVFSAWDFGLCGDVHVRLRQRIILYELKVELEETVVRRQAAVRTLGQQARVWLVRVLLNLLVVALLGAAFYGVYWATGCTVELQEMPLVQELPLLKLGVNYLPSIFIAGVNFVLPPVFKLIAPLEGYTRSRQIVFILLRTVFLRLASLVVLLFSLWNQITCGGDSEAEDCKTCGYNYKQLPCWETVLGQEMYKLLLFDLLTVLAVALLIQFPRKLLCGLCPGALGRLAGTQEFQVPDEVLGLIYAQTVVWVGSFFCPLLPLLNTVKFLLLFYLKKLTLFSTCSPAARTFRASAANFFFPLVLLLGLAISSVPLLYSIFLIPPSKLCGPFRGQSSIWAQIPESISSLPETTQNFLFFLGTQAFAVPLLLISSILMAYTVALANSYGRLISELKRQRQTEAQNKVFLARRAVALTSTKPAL
Description: In order to observe influence of a known salty taste enhancer on TMC4, the whole cell patch clamp assay (whole cell recording) was performed by using HEK293T cells expressing human TMC4 (hTMC4).
The whole cell patch clamp assay was performed in the same manner as in Example 2 except for the following:
1) HEK293T cells expressing human TMC4 (hTMC4) were used; and
2) a 134 mM NaCl solution was used as a vehicle solution, an extracellular fluid obtained by adding 100 μM arginine hydrochloride (Arg-HCl) as a salty taste enhancer to the vehicle solution, and an extracellular fluid (control not enhancing salty taste) obtained by adding 100 μM sucrose or maltose to the vehicle solution were used. A Cl^− current flowing via TMC4 was compared.
As for the hTMC4, a clone of Accession No. BC025323 was purchased from Dharmacon, and inserted between restriction enzyme EcoR1 site and Not1 site of the plasmid pIRES2-AcGFP1 to create an expression construct in the same manner as that for the mTMC4.

[2] = target: T2, mouse TMC4 (mTMC4) (Mus musculus, UniProt Q7TQ65); assay: whole cell patch clamp assay using HEK293T cells expressing mTMC4; format: cell-based; details: 100 μM added to the 134 mM NaCl buffer, 25° C.
T2 construct: expressed in transfected cells; host or cells: HEK293T
T2 sequence (Q7TQ65 1-694): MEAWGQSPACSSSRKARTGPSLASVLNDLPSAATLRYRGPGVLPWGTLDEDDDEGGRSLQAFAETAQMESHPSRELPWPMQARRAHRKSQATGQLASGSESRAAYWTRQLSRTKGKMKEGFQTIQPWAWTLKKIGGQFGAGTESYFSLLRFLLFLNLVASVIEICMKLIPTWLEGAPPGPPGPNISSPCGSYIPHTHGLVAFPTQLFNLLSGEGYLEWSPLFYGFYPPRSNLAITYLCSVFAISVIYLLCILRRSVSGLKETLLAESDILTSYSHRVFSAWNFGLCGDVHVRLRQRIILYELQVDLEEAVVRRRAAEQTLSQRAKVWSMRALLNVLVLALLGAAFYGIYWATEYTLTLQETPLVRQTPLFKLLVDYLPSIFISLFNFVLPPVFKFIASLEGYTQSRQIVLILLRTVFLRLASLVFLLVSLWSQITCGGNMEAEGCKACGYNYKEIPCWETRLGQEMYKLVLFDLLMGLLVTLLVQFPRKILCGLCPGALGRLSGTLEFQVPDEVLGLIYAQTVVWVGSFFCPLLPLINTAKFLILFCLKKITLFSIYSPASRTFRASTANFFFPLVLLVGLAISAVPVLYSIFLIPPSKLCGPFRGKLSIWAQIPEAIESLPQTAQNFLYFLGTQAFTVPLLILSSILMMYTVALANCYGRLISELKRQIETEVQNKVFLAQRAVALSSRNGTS
Description: In order to check electrophysiological properties of TMC4, a whole cell patch clamp assay (whole cell recording) was performed using HEK293T cells expressing TMC4.
In order to express mouse TMC4 (mTMC4) in HEK293T cells, a plasmid vector pIRES2-AcGFP1 (Clontech Laboratories, Inc.) having a CMV promoter was used. An expression construct in which mTMC4 (sequence of Accession No. NM_181820.2 cloned from cDNA derived from mouse circumvallate papillae epithelium) was inserted between restriction enzyme EcoR1 site and Not1 site of pIRES2-AcGFP1 was transfected at a ratio of 1 μg/35 mm dish. As a transfection reagent, Lipofectamine™ LTX Reagent with PLUS & Reagent™ (Thermo Fisher Scientific K.K.) was used. […]
In the whole cell patch clamp recording using the HEK293T cells, Axopatch 200B (Molecular Devices, LLC.) was used as an amplifier, and digital data was obtained from Digidata 1550 (Axon Instruments, Union City, Calif., USA). The obtained data was analyzed using software pCLAMP 10.2 (Axon Instruments). […]
The measurement was performed with the membrane potential of mTMC4-expressing cells fixed at −60 mV with extracellular fluids successively perfused. A step pulse (400 ms) from −100 mV to +100 mV at intervals of 10 mV was applied to each extracellular fluid to create an I-V curve, and thus, voltage-current characteristics of mTMC4 obtained with different extracellular fluids were measured. […]

| Cl- current flowing via TMC4 [1] | outward Cl- current [2] | SMILES |
| --- | --- | --- |
| did not change |  | OC[C@H]1O[C@H](O[C@H]2[C@H](O)[C@@H](O)C(O)O[C@@H]2CO)[C@H](O)[C@@H](O)[C@@H]1O (mixture of isomers) [maltose] |
|  | completely disappeared | O=C(O)c1cc([N+](=O)[O-])ccc1NCCCc1ccccc1 [NPPB, 5-Nitro-2-(3-phenylpropylamino) benzoic acid] |
| did not change |  | OC[C@H]1O[C@@](CO)(O[C@H]2O[C@H](CO)[C@@H](O)[C@H](O)[C@H]2O)[C@@H](O)[C@@H]1O [sucrose] |

| SMILES | Cl- current flowing via TMC4 [1] | outward Cl- current [2] |
| --- | --- | --- |
| Cl.N=C(N)NCCC[C@H](N)C(=O)O [arginine hydrochloride] | increased |  |
